Test results from patent US7439039B2, “Assays for novel serotonin transporter (SERT) blockers” (priority 2003, dated 2008).
Counter-ions that a name gives are not always drawn. Like-named read-outs stand apart in the source and are kept apart here.

Assays:
hSERT WT = hSERT WT (Homo sapiens, UniProt P31645); experiment: cell-based; assay type: cell-based
hSERT Y95F = hSERT Y95F (Homo sapiens, UniProt P31645, Y95F)
Protocol: HeLa cells maintained at 37° C. in a 5% CO2 humidified incubator, were grown in complete medium (DMEM, 10% FBS, 2 mM L-glutamine, 100 units/ml penicillin, and 100 μg/ml streptomycin). For initial evaluation of mutant transporter activity, cells were plated at a density of 100,000 cells per well in 24 well culture plates. Cells were transfected with SERT mutant or wild-type constructs with 3 μl of Fugene 6 per μg of DNA pre-mixed in OptiMEM medium. Following transfection (16 hours), cells were washed with KRH assay buffer (120 mM NaCl, 4.7 mM KCl, 2.2 mM CaCl2, 1.2 mM MgSO4, 1.2 mM KH2PO4, 10 mM HEPES, pH 7.4) and assayed by competitive uptake assays where cells were preincubated for 10 min at 37° C. in assay buffer containing 1.8 g/L glucose and various concentrations of inhibitor compounds. […] The extent of [^3H]-5-HT accumulated was determined by liquid scintillation counting on a Packard TopCount System.
The resulting data was normalized to percent uptake of wild-type control and analyzed by a non-linear competition binding equation (Prism 4 for Mac, Graphpad Software) for [^3H]-5-HT (5-hydroxy[^3H]tryptamine trifluoroacetate, Amersham Pharmacia Biotech). […] For Ki values were determined by application of the Cheng and Prusoff equation. […]

Structure (SMILES) | EC50 (hSERT WT) [µM] | EC50 (hSERT WT; read-out: EC50(μM) WT) [µM] | further results
NCCc1c[nH]c2c(O)c(O)c(O)cc12 [5,6,7 trihydroxytryptamine] | 14.3 |  | 
NCCc1c[nH]c2ccc(O)cc12 [5HT, 5-hydroxytryptamine] |  |  | recognition (hSERT Y95F): appeared normal
NCCc1c[nH]c2c(O)cccc12 [7-hydroxytryptamine] | 1.4 |  | 
CC(N)Cc1c[nH]c2ccc(O)cc12 (stereo not drawn) [Alpha-methylserotonin maleate] |  | 2.2 | 
CNC(C)Cc1ccc2c(c1)OCO2 (stereo not drawn) [MDMA] |  | 0.7 | 
OC1(c2ccc(Cl)cc2)c2ccccc2C2=NCCN21 (stereo not drawn) [Mazindol] | 2.9 |  | 
CNCCC(Oc1ccccc1OC)c1ccccc1 (stereo not drawn) [Nisoxetine] | 1.36 |  | 
COC(=O)[C@H]1C(c2ccc(I)cc2)C[C@@H]2CC[C@H]1N2C (stereo partly drawn) [RTI-55] |  | 0.0007 | 
NCCc1c[nH]c2ccccc12 [Tryptamine] | 0.2 |  | 
